Where two headings read alike, the source gives them in different places.
System: 134 cancer cell lines
Assay: Cell viability assay (ATPlite, 72 hours), IC50 on cancer cell line panel

What does the source list for `COC(=O)N[C@@H](C)CNc1nccc(-c2cn(C(C)C)nc2-c2cc(Cl)cc(NS(C)(=O)=O)c2F)n1` [encorafenib]?
IC50 (Homo sapiens, MG-63, read-out: IC50 in cell proliferation assay, MG-63 cell line): > 31.6 µM; IC50 (Homo sapiens, MIA PaCa-2, read-out: IC50 in cell proliferation assay, MIA PaCa-2 cell line): 1.24 µM; IC50 (Homo sapiens, MKN-45, read-out: IC50 in cell proliferation assay, MKN45 cell line (MET amplification)): 3.81 µM; IC50 (Homo sapiens, MOLM-13, read-out: IC50 in cell proliferation assay, MOLM-13 cell line (FLT3 ITD)): 1.07 µM; IC50 (Homo sapiens, MOLT-4, read-out: IC50 in cell proliferation assay, MOLT-4 cell line): 1.67 µM; IC50 (Homo sapiens, MV4-11, read-out: IC50 in cell proliferation assay, MV4-11 cell line (FLT3 ITD)): 2.28 µM; IC50 (Homo sapiens, MeWo, read-out: IC50 in cell proliferation assay, MeWo cell line): 1 µM; IC50 (Homo sapiens, NCCIT, read-out: IC50 in cell proliferation assay, NCC-IT cell line): 1.04 µM; IC50 (Homo sapiens, NCI-H82, read-out: IC50 in cell proliferation assay, cell line NCI-H82): 1.07 µM; IC50 (Homo sapiens, NCI-H460, read-out: IC50 in cell proliferation assay, NCI-H460 cell line): 1.16 µM; IC50 (Homo sapiens, NCI-H661, read-out: IC50 in cell proliferation assay, NCI-H661 cell line): 0.821 µM; IC50 (Homo sapiens, NCI-H716, read-out: IC50 in cell proliferation assay, cell line NCI-H716 (FGFR2-COL14A1)): 9.56 µM; IC50 (Homo sapiens, NCI-H1650, read-out: IC50 in cell proliferation assay, NCI-H1650 cell line (EGFR exon19del)): > 31.6 µM; IC50 (Homo sapiens, NCI-H1975, read-out: IC50 in cell proliferation assay, NCI-H1975 cell line (EGFR p.L858R + p.T790M)): 1.44 µM; IC50 (Homo sapiens, NCI-H2228, read-out: IC50 in cell proliferation assay, NCI-H2228 cell line (EML4-ALK)): 2.3 µM; IC50 (Homo sapiens, OVCAR-3, read-out: IC50 in cell proliferation assay, cell line OVCAR-3): 0.695 µM; IC50 (Homo sapiens, PFSK-1, read-out: IC50 in cell proliferation assay, cell line PFSK-1): 1 µM; IC50 (Homo sapiens, RL95-2, read-out: IC50 in cell proliferation assay, cell line RL95-2 (EGFR p.A289V)): 0.924 µM; IC50 (Homo sapiens, RPMI-7951, read-out: IC50 in cell proliferation assay, cell line RPMI-7951 (BRAF p.V600E)): 0.013 µM; IC50 (Homo sapiens, RS4-11, read-out: IC50 in cell proliferation assay, cell line RS4;11): 0.925 µM; IC50 (Homo sapiens, Rec1, read-out: IC50 in cell proliferation assay, cell line REC-1): 8.53 µM; IC50 (Homo sapiens, SHP77, read-out: IC50 in cell proliferation assay, cell line SHP-77): > 31.6 µM; IC50 (Homo sapiens, SK-BR-3, read-out: IC50 in cell proliferation assay, cell line SK-BR-3 (ERBB2 amplification)): > 31.6 µM; IC50 (Homo sapiens, SK-N-AS, read-out: IC50 in cell proliferation assay, cell line SK-N-AS): 1.11 µM; IC50 (Homo sapiens, SK-N-FI, read-out: IC50 in cell proliferation assay, cell line SK-N-FI): 3.29 µM; IC50 (Homo sapiens, SK-N-MC, read-out: IC50 in cell proliferation assay, cell line SK-N-MC): 0.976 µM; IC50 (Homo sapiens, SK-N-SH, read-out: IC50 in cell proliferation assay, cell line SK-N-SH (ALK p.F1174L)): 1.11 µM; IC50 (Homo sapiens, SNU-5, read-out: IC50 in cell proliferation assay, cell line SNU-5 (MET amplification)): 7.36 µM; IC50 (Homo sapiens, SNU-16, read-out: IC50 in cell proliferation assay, cell line SNU-16 (FGFR2 amplification)): 1.75 µM; IC50 (Homo sapiens, SNU-C2B, read-out: IC50 in cell proliferation assay, cell line SNU-C2B (EGFR p.R165Q)): 9.59 µM; IC50 (Homo sapiens, SU-DHL-1, read-out: IC50 in cell proliferation assay, cell line SU-DHL-1 (NPM1-ALK)): 2.15 µM; IC50 (Homo sapiens, SU-DHL-6, read-out: IC50 in cell proliferation assay, cell line SU-DHL-6): 5.81 µM; IC50 (Homo sapiens, SUP-T1, read-out: IC50 in cell proliferation assay, cell line SUP-T1): > 31.6 µM; IC50 (Homo sapiens, SW48, read-out: IC50 in cell proliferation assay, cell line SW48 (EGFR p.G719S)): 2.23 µM; IC50 (Homo sapiens, SW480, read-out: IC50 in cell proliferation assay, cell line SW480): 1.22 µM; IC50 (Homo sapiens, SW626, read-out: IC50 in cell proliferation assay, cell line SW626): 2.44 µM; IC50 (Homo sapiens, SW780, read-out: IC50 in cell proliferation assay, cell line SW780 (FGFR3-BAIAP2L1)): 19.8 µM; IC50 (Homo sapiens, SW837, read-out: IC50 in cell proliferation assay, cell line SW837): > 31.6 µM; IC50 (Homo sapiens, SW872, read-out: IC50 in cell proliferation assay, cell line SW872 (BRAF p.V600E)): 0.007 µM; IC50 (Homo sapiens, SW900, read-out: IC50 in cell proliferation assay, cell line SW900): 1.39 µM; IC50 (Homo sapiens, SW948, read-out: IC50 in cell proliferation assay, cell line SW948): 3.23 µM; IC50 (Homo sapiens, SW982, read-out: IC50 in cell proliferation assay, cell line SW982 (BRAF p.V600E)): 0.549 µM; IC50 (Homo sapiens, SW-620, read-out: IC50 in cell proliferation assay, cell line SW620): 1.81 µM; IC50 (Homo sapiens, T98G, read-out: IC50 in cell proliferation assay, cell line T98G): 1.67 µM; IC50 (Homo sapiens, TCC-SUP, read-out: IC50 in cell proliferation assay, cell line TCCSUP): 0.74 µM; IC50 (Homo sapiens, THP-1, read-out: IC50 in cell proliferation assay, cell line THP-1): 2.46 µM; IC50 (Homo sapiens, U2OS, read-out: IC50 in cell proliferation assay, cell line U2OS): 1.46 µM; IC50 (Homo sapiens, U-87 MG, read-out: IC50 in cell proliferation assay, cell line U-87MG ATCC): 1.05 µM; IC50 (Homo sapiens, U-118-MG, read-out: IC50 in cell proliferation assay, cell line U-118MG): 1.41 µM; IC50 (Homo sapiens, UMUC3, read-out: IC50 in cell proliferation assay, cell line UM-UC-3): 0.993 µM; IC50 (Hs766T, read-out: IC50 in cell proliferation assay, Hs 766T cell line): 1.91 µM; IC50 (L-82, read-out: IC50 in cell proliferation assay, L-82 cell line (NPM1-ALK)): 8.75 µM; IC50 (Rh30, read-out: IC50 in cell proliferation assay, cell line Rh30): 1.08 µM; IC50 (read-out: IC50 in cell proliferation assay, 11-18 cell line (EGFR p.L858R)): > 31.6 µM; IC50 (read-out: IC50 in cell proliferation assay, Hs 852.T cell line): 3.37 µM; IC50 (read-out: IC50 in cell proliferation assay, JAR cell line): 0.419 µM; IC50 (read-out: IC50 in cell proliferation assay, cell line 5637): 0.586 µM; IC50 (read-out: IC50 in cell proliferation assay, cell line A-388): 2 µM; IC50 (read-out: IC50 in cell proliferation assay, cell line DB): 1.21 µM; IC50 (read-out: IC50 in cell proliferation assay, cell line DEL (NPM1-ALK)): 6.42 µM; IC50 (read-out: IC50 in cell proliferation assay, cell line ES-2 (BRAF p.V600E)): 0.1 µM; IC50 (read-out: IC50 in cell proliferation assay, cell line PA-1): 0.841 µM; IC50 (read-out: IC50 in cell proliferation assay, cell line PC-3): 1.37 µM; IC50 (read-out: IC50 in cell proliferation assay, cell line RD): 1.63 µM; IC50 (read-out: IC50 in cell proliferation assay, cell line RKO (BRAF p.V600E)): 0.244 µM; IC50 (read-out: IC50 in cell proliferation assay, cell line RL): 29.2 µM; IC50 (read-out: IC50 in cell proliferation assay, cell line RT-4 (FGFR3-TACC3)): 3.77 µM; IC50 (read-out: IC50 in cell proliferation assay, cell line SR (NPM1-ALK)): 0.921 µM; IC50 (read-out: IC50 in cell proliferation assay, cell line T24): 1.05 µM; IC50 (read-out: IC50 in cell proliferation assay, cell line TT (RET p.C634W)): 5.09 µM; IC50 (read-out: IC50 in cell proliferation assay, cell line VA-ES-BJ): 1.13 µM
